Laboratory results as given in patent US20050065114A1, “Therapeutical treatment with oligo-beta- (1,3) -glucans, drugs used in said treatment” (priority 2003, published 2005).
Several values for one entry are separate records, joined by “and”; a condition that tells them apart may be missing. Equal values may be shown once.

Columns and labels:
Format in all cases: in vivo, Balb/c mice
[1] = system: cells from peripheral blood (monocytes, granulocytes); assay: Phagocytosis of HEMA particles by cells from peripheral blood after intraperitoneal injection; settings: for % of phagocytosing granulocytes / % of phagocytosing monocytes: peripheral blood 24 hrs after i.p. injection
Method: A group of Balb/c mice (Jackson laboratory, Bar Harbor, ME, USA) has been injected intraperitoneally with either PBS (Control; Sigma, St. Louis, Mo., USA), Laminaritetraose or Laminaripentaose. 24 hrs later, mice were sacrified, peripheral blood from the orbital plexus was collected into heparine (5 IU/ml) (Sigma).
After counting, a test of phagocytosis of HEMA particles (synthetic microspheres prepared from 2-hydroxyethylmethacrylate copolymer) was performed as described in: Rembaum et al., 1976, Vetvicka et al. 1982, Bilej et al., 1989.
0.1 ml of heparinized fresh blood was added to 0.05 ml of diluted HEMA particles (5×10^8/ml) and incubated for 60 minutes at 37° C. with occasional gentle agitation.
After the end of incubation, the cell suspension was smeared over microscope slides. Smears were evaluated under the optical microscope after Accustain (modified Wright stain, Sigma) staining.
Cells with at least three engulfed particles were considered to be positive.

[2] = system: peritoneal cells (macrophages, lymphocytes, mast cells); assay: Differential count in peritoneal cells; settings: for % of lymphocytes / % of macrophages / % of mast cells: peritoneal cells 24 hrs after i.p. injection
Method: (§1) Using the same experimental groups as described above in Example 4, two extra microscopic slides from each experimental sample were prepared. After Accustain (modified Wright stain, Sigma) staining, the slides were evaluated using the optical microscope for presence of individual types of cells, i.e. macrophages, lymphocytes and mast cells.

[3] = system: TNF-alpha; assay: Cytokine level in peripheral blood: TNF-alpha in serum by OptEIA Mouse TNF-alpha ELISA; settings: for TNF-alpha level (Table 6, same experiments as Table 5): 250 μg/mouse, unit not given in Table 6 (Table 5: pg/ml)
Method: Balb/c mice were intraperitoneally injected with 50 μg of Laminaritetraose, Laminaripentaose, Laminarin or Lentinan (purchased from NIH, Bethesda, Md., USA) in PBS.
After various time intervals (30, 60 and 90 minutes, respectively), after the injection of Laminaritetraose, Laminaripentaose, Laminarin, Lentinan only, the mice were killed and blood was collected in Eppendorf tubes.
Subsequently, the serum of the collected blood was separated, collected and stored at −80° C. for no more than 1 week.
The level of TNF-alpha in the serum samples was evaluated using a commercial kit marketed as OptEIA Mouse TNF-alpha (Mono/Mono) Set by the Company Pharmingen, San Diego, Calif., USA); the manufacturer's instructions were followed.
In connection with the experiments carried out by Applicants, Balb/c mice were intraperitoneally injected with various doses (50, 100, and 250 μg) of Soluble laminarin and Lentinan (from NIH, Bethesda, Md., USA) in PBS.
Control mice were treated with PBS only. […]
Subsequently, the serum was prepared, collected and stored at −80° C. for no more than 1 week.
The level of TNF-alpha in serum samples was evaluated using a commercial kit marketed as OptEIA Mouse TNF-alpha (Mono/Mono) Set by the Company Pharmingen, San Diego, Calif., USA); the manufacturer's instructions were followed.
In that respect, The wells of 96-well plates were coated with 0.1 ml/well of capture antibody (provided in the above kit) diluted in coating buffer (also provided in the above kit); the expression “capture antibody” designates first antibody used for coating of wells; this antibody captures the tested cytokines from the solution; in this assay it was anti-mouse-TNF-alpha monoclonal antibody.
The plates were sealed and incubated overnight at 4° C.
Individual wells were emptied by aspiration and washed 3 times with over 300 el/well of wash buffer (also provided in the kit).
Reaction was blocked with 200 el/well of assay dilutant diluent (also provided in the kit) and by incubation for 60 minutes at room temperature.
Again, individual wells were emptied by aspiration and washed 3 times with over 300 el/well of the same wash buffer.
Standards (also provided in the kit) and samples of serum were diluted in assay diluent (also provided in the kit) and pipetted (100 μl/well) in appropriate wells; as far as the dissolution rate is concerned standards (part of the kit) were diluted according to the instructions into following concentrations: 1000 pg/ml, 500 pg/ml, 250, 125, 62.5, 31.3, and 15.6 pg/ml.
The plates were sealed and incubated for 60 minutes at room temperature. Individual wells were aspirated and washed 3 times with over 300 μl/well of the same wash buffer. A quantity of 100 μl/well of a working detector (antibody-avidin-HRP conjugate also provided in the kit) was added into each well.
The plates were sealed with plastic foils and incubated for 60 minutes at room temperature. Individual wells were emptied by aspiration and washed 3 times with over 300 μl/well of same wash buffer.
A quantity of 100 μl/well of substrate solution (also provided in the kit) was added to each well and the plates were incubated for 30 minutes in the dark at room temperature; “substrate solution” is formed by mixing a substrate reagent A containing hydrogen peroxide and Substrate reagent B containing 3,3′,5,5′-tetramethylbenzidine in organic solvent; when mixed together, the reagent reacts with peroxidase-labeled conjugates to develop a blue color.
A quantity of 50 μl/well of stop solution provided in the kit and adapted to stop the reaction was added to each well and the optical density was determined using a STL ELISA reader (marketed by Tecan U.S., Research Triangle Park, N.C.) at 450 nm with a correction at 570 nm.
The concentration of TNF-alpha, in pg/ml, in the blood of the mice treated as hereabove disclosed has been determined at the following moments: 30, 60 and 90 minutes after the injection of Laminaritetraose, Laminaripentaose, Lentinan and control. […]

[4] = system: peritoneal macrophages; assay: Phagocytosis of HEMA particles by cells from peritoneal cavity after intraperitoneal injection; settings: for % of phagocytosing macrophages: peritoneal cells 24 hrs after i.p. injection
Method: A group of Balb/c mice (Jackson laboratory, Bar Harbor, Me., USA) has been injected intraperitoneally with either PBS (control), Laminaritetraose or Laminaripentaose. 24 hrs later, mice were sacrificed, peritoneal cells were collected into Hanks medium (Sigma).
After counting the cells in hemocytometer, the peritoneal cells were diluted to lxlO7 cells in RPMI 1640 medium (Sigma) with 5% fetal calf serum (Hyclone, Logan, Utah, USA).
2×10^6 cells in 0.2 ml of RPMI 1640 medium supplemented with 5% fetal calf serum were mixed with the same volume of HEMA particles (5×10^8/ml).
The suspension was incubated for 60 minutes at 37° C. with occasional agitation. Incubation was terminated by centrifugation (150 g for 5 minutes) and the pellet was resuspended.
Macrophages with ingested particles were scored under the optical microscope in smears after Accustain (modified Wright stain, Sigma) staining.
Cells with six or more engulfed particles were considered to be positive.

[5] = system: peripheral blood cells (monocytes, lymphocytes, granulocytes); assay: Differential count in blood; settings: for % of granulocytes / % of lymphocytes / % of monocytes: peripheral blood 24 hrs after i.p. injection
Method: as §1, with “3,” for “4,”, “monocytes,” for “macrophages,”, “granulocytes.” for “mast cells.”

[6] = individual values, cells with at least three engulfed HEMA particles positive
[7] = mean, at least three engulfed HEMA particles

OC[C@H]1O[C@@H](O[C@@H]2[C@@H](O)[C@H](O[C@@H]3[C@@H](O)[C@H](O[C@@H]4[C@@H](O)[C@H](O)O[C@H](CO)[C@H]4O)O[C@H](CO)[C@H]3O)O[C@H](CO)[C@H]2O)[C@H](O)[C@@H](O)[C@@H]1O [Laminaritetraose, β-D-glucopyranosyl-(1→3)-β-D-glucopyranosyl-(1→3)-β-D-glucopyranosyl-(1→3)-β-D-glucopyranose] was tested, and the “% of phagocytosing granulocytes” value [1, 6] was 28.6% and 32.3% and 32.6%, the “% of phagocytosing monocytes” value [1, 6] was 36.8% and 30.9% and 39.8% and the “% of phagocytosing granulocytes” value [1, 7] was 31.2%. The “% of phagocytosing monocytes” value [1, 7] was 35.8%, the “Effect on phagocytosis in monocytes and granulocytes (in words)” value ([1]; peripheral blood, versus PBS control) was “strongly stimulate phagocytosis” and the “% of lymphocytes” value ([2]; individual values) was 45.9% and 50.4% and 44.1%. For the same molecule, the “% of macrophages” value ([2]; individual values) was 41.2% and 43.6% and 46.8%, the “% of mast cells” value ([2]; individual values) was 12.9% and 6.0% and 9.1% and the “% of lymphocytes” value ([2]; mean) was 46.8%. The “% of macrophages” value ([2]; mean) was 43.9%, the “% of mast cells” value ([2]; mean) was 9.3% and the “Effect on migration of macrophage into the peritoneal cavity (in words)” value ([2]; versus PBS control) was “stimulate the migration of macrophage”. The “Concentration of TNF alpha in blood of treated mice” value (“Concentration of TNF alpha” for short) ([3]; 50 μg/mouse i.p., 30 min) was 55.7 pg/mL, the “Concentration of TNF alpha” value ([3]; 50 μg/mouse i.p., 60 min) was 103.0 pg/mL and the “Concentration of TNF alpha” value ([3]; 50 μg/mouse i.p., 90 min) was 35.3 pg/mL. For the same molecule, the “Concentration of TNF alpha” value ([3]; 100 μg/mouse i.p., 30 min) was 39.0 pg/mL, the “Concentration of TNF alpha” value ([3]; 100 μg/mouse i.p., 60 min) was 18.4 pg/mL and the “Concentration of TNF alpha” value ([3]; 100 μg/mouse i.p., 90 min) was 13.6 pg/mL. The “Concentration of TNF alpha” value ([3]; 250 μg/mouse i.p., 30 min) was 27.3 pg/mL, the “Concentration of TNF alpha” value ([3]; 250 μg/mouse i.p., 60 min) was 152.3 pg/mL and the “Concentration of TNF alpha” value ([3]; 250 μg/mouse i.p., 90 min) was 11.1 pg/mL. For the same molecule, the TNF-alpha level (Table 6, same experiments as Table 5) ([3]; 24 hours) was 28.1 pg/mL, the TNF-alpha level (Table 6, same experiments as Table 5) ([3]; 48 hours) was 35.9 pg/mL and the “Relative activity on TNF-alpha level (in words)” value ([3]; comparison between substances, Table 6, 24 and 48 h) was “more active than yest derived glucan (Lentinan)”. The “Increase of TNF-alpha secretion compared with Lentinan (in words)” value ([3]; low doses, indirect activation of macrophages and cytotoxic T lymphocytes) was “significantly higher”, the “% of phagocytosing macrophages” value ([4]; individual values, cells with six or more engulfed HEMA particles positive) was 46.2% and 51.5% and 44.5% and the “% of phagocytosing macrophages” value ([4]; mean, six or more engulfed HEMA particles) was 47.4%. The “Effect on phagocytosis of peritoneal macrophages (in words)” value ([4]; peritoneal cells, versus PBS control) was “strongly stimulate phagocytosis”, the “% of granulocytes” value ([5]; individual values) was 33.2% and 34.4% and 30.1% and the “% of lymphocytes” value ([5]; individual values) was 57.7% and 55.6% and 61.4%. For the same molecule, the “% of monocytes” value ([5]; individual values) was 9.1% and 10.0% and 8.5%, the “% of granulocytes” value ([5]; mean) was 32.6% and the “% of lymphocytes” value ([5]; mean) was 58.2%. For the same molecule, the “% of monocytes” value ([5]; mean) was 9.2% and the “Effect on number of granulocytes in the peripheral blood (in words)” value ([5]; versus PBS control) was “increase the number of granulocytes”.
